Consider one substance from patent US20220370463A1, “STABILIZED C-FMS INTRACELLULAR FRAGMENTS (FICD) PROMOTE OSTEOCLAST DIFFERENTIATION AND ARTHRITIC BONE EROSION” (New York Society for the Relief of the Ruptured and …, priority 2019, published 2022).

In this test the test system is FICD (mem, H-FICD, L-FICD). Nature of the test: FICD in membrane, cytoplasmic and nuclear fractions of human OCPs, immunoblot. In kind it is cell-based. The protocol: (a) Human CD14+ cells were cultured with M-CSF (20 ng/ml) for 8 hours to induce early signals and then DAPT (10uM) was added for 2 days. Protein expression of c-FMS, Na+K+ pump, Lamin B1 and α-tubulin, as determined by immunoblot. ME; membrane extracts, CE; cytoplasmic extracts, and NE; nuclear extracts. (b) Immunohistochemistry of DAPI and c-FMS [middle]. […] Scale: 200×. (c) Cells were starved for three hours and then stimulated with M-CSF for the indicated times. (d and e) Cells were treated with Imatinib (0.3 μM, d) or c-FMS blocking antibody (5 μg) prior to the addition of M-CSF. Protein expression of FICD was measured by immunoblot. Lamin B1 and α-tubulin were used as controls for nuclear and cytoplasmic fractions, respectively. (f) Human CD14+ cells were cultured with M-CSF (20 ng/ml) for 8 hours to induce early signals and then MDL 28170(5 uM). Immunoblot with anti c-FMS and Lamin B1 antibodies. (g and h) Calpain 1, 5, and 6 were knocked down with siRNAs. Cells were cultured with M-CSF for 12 hours. (g) Efficiency of knockdown of Calpain 1, 5, and 6. (h) Immunoblot of c-FMS and Lamin B1. All data are shown as mean±SEM. *,p<0.05 by two-tailed, unpaired t-test (g). Representative results from at least three independent experiments.
(A and B) Human CD14+ cells were cultured with M-CSF (20 ng/ml) for 8 hours to induce early signals and then (A) MDL 28170(0, 1, 2, 5 uM) or (B) PD150606 (0, 2, 5 uM) was added for 2 days. Immunoblot with anti c-FMS and α-tubulin antibodies in whole lysates(n=3). (C) Immunoblot of nuclear lysates with c-FMS and Lamin B1 antibodies. Cells were cultured with M-CSF for 12 hours, and then M-CSF was removed. Cells were subsequently treated with or without CaCl2 (10 mM) for an additional 24 hours. (D) Osteoclastogenesis assay. Human CD14+ cells were cultured with M-CSF, RANKL and MDL28170 for 4 days. […] Black scale bar is 100 μm. […] First two calpain cleavage sites in cytoplasmic domains of c-FMS were used for FICD constructs. (F) A schematic diagram of a FICD construct. Representative results from at least three independent experiments.
Whole cell extracts were prepared by lysis in buffer containing 1× Lamin sample buffer (Bio-rad) and 2-Mercaptoethanol (Sigma) or RIPA buffer (Sigma). The cell membrane-permeable protease inhibitor, Pefablock (1 mM), was added immediately prior to harvest cells. The membrane proteins were extracted with Mem-PER™ Plus Membrane Protein Extraction Kit (Thermorfisher scientific; 89842) according to manufacturer's instructions. To extracts of nucleus protein, cells were incubated in buffer A (10 mM Hepes, pH 7.9, 1.5 mM MgCl2, 10 mM KCl, 0.1 mM EDTA, 0.1 mM EGTA, proteinase inhibitor cocktail (Complete, Roche) and 1 mM DTT) for 15 min at 4° C. NP-40 was added to a final concentration of 0.5%. Nucleus was collected by centrifugation (5000 rpm, 5 min). The pellets were lysed by Bioruptor-ultrasonicator (UCD400, Diagenode) in buffer B (20 mM Hepes, pH 7.9, 0.4M NaCl, 10 mM KCl, 1 mM EDTA, 1 mM EGTA, 10% Glycerol, proteinase inhibitor cocktail and 1 mM DTT) and collected the supernatant by centrifugation (12,000 rpm, 10 min). The protein concentration of nuclear extracts was quantitated using the Bradford assay (Bio-Rad; 5000001). For immunoblot, proteins were separated on 7.5 or 10% SDS-PAGE gels, transferred to polyvinylidene difluoride membranes (PVDF, Millipore; ISEQ00010), and detected by antibodies as listed in the figure legends.

Setting [1] is: MDL 28170 5 uM after 8 hours M-CSF, nuclear extracts.

For MDL28170, the “effect of calcium signaling on L-FICD processing” value (M-CSF removed, CaCl2 (10 mM) for 24 hours, nuclear lysates) is listed as “reversed”. Besides, under setting [1], the “enrichment of L-FICD versus H-FICD in the nucleus” value is “shifted the enrichment of L-FICD to H-FICD in the nucleus” and the “translocation of FICD into the nucleus” value is listed as “did not interfere”.
